In this data set the test system is Oryzias latipes. Put plainly: Ichthyotoxicity against Oryzias latipes at 20 ug/mL. Type of data set: organism-based. The following applies: in vivo.

SMILES strings stand for the structures.

As for `C/C1=C/C[C@@H](C(C)C)/C=C/[C@](C)(O)CC/C=C(\C)CC(=O)C1` [SARTONE E], the Activity entry was “Non-toxic”.

(Values after ChEMBL document CHEMBL1144075, “New cembranes from the soft coral sarcophyton species” (J Nat Prod, 1999).)
